IC50 data for 21 compounds are collected here from patent US12485121B2, “Antiviral agents for the treatment and prevention of HIV infection” (Pharmasyntez, Joint Stock Company, priority 2020, dated 2025).

For this test, the system named is HIV-1 subtype A strain 12RU 69831. Nature of the test: Inhibition of HIV-1 reproduction / protection of infected MT-4 cells (living cell concentration, p24 production). As to conditions: Human immunodeficiency virus 1, MT4, MT-4 cells infected with HIV-1 at a constant virus dose of 300 CCID50; read-out: Activity against HIV-1 12RU 69831 strain (subtype A). The test is classed as cell-based. As to the method:
Evaluation of HIV reproduction inhibition/protection of human cells by anti-HIV products of the present invention was conducted by measuring change in living cells concentration in experimental wells with MT-4 cells infected with HIV-1, as well as by the production of viral protein p24 with adding different concentrations of compounds according to the present invention. Antiviral activity of products against HIV-1 subtype A strain 12RU 69831 was determined, when the cell culture was infected with a constant dose of virus, corresponding to 300 CCID50.
With `Cc1cc(C#N)cc(C)c1Oc1nc(Nc2ccc(C#N)cc2)nc2c1CCN(C1CCNCC1)CC2` [BB0274028, 4-((2-((4-Cyanophenyl)amino)-7-(piperidine-4-yl)-6,7,8,9-tetrahydro-5H-pyrimido[4,5-d]azepine-4-yl)oxy)-3,5-dimethylbenzonitrile], the IC50 turned out to be 16.2 µM.

Regarding `Cc1cc(C#N)cc(C)c1Oc1nc(Nc2ccc(C#N)cc2)nc2c1CN(C(=O)[C@@H](CO)NC(=O)OC(C)(C)C)CC2` [BB0274119, (R)-Tert-butyl (1-(4-(4-cyano-2,6-dimethylphenoxy)-2-((4-cyanophenyl)amino)-7,8-dihydropyrido[4,3-d]pyrimidine-6(5H)-yl)-3-hydroxy-1-oxopropane-2-yl)carbamate], the IC50 turned out to be 103 µM.

On to `Cc1cc(C#N)cc(C)c1Oc1nc(Nc2ccc(C#N)cc2)nc2c1CN(C(=O)C(N)Cc1cn[nH]c1)CC2` (stereo not drawn) [BB0274121, 4-((6-(2-Amino-3-(1H-pyrazole-4-yl)propanoyl)-2-((4-cyanophenyl)amino)-5,6,7,8-tetrahydropyrido[4,3-d]pyrimidine-4-yl)oxy)-3,5-dimethylbenzonitrile], for which the IC50 is 18.7 µM.

With `Cc1cc(C#N)cc(C)c1Oc1nc(Nc2ccc(C#N)cc2)nc2c1CCN(C)C2` [BB0273774, 4-((2-((4-Cyanophenyl)amino)-7-methyl-5,6,7,8-tetrahydropyrido[3,4-d]pyrimidine-4-yl)oxy)-3,5-dimethylbenzonitrile], the IC50 was determined as 224 µM.

Regarding `CC(=O)N1CCc2nc(Nc3ccc(C#N)cc3)nc(Oc3c(C)cc(C#N)cc3C)c2CC1` [BB0274145, 4-((7-Acetyl-2-((4-cyanophenyl)amino)-6,7,8,9-tetrahydro-5H-pyrimido[4,5-d]azepine-4-yl)oxy)-3,5-dimethylbenzonitrile], the IC50 was found to be 1.69 µM.

Regarding `Cc1cc(C#N)cc(C)c1Oc1nc(Nc2ccc(C#N)cc2)nc2c1CN(C(=O)CN1CC(O)C1)CC2` [BB0274052, 4-((2-((4-Cyanophenyl)amino)-6-(2-(3-hydroxyazetidine-1-yl)acetyl)-5,6,7,8-tetrahydropyrido[4,3-d]pyrimidine-4-yl)oxy)-3,5-dimethylbenzonitrile], the IC50 is 0.127 µM.

As to `Cc1cc(C#N)cc(C)c1OC1=NC(Nc2ccc(C#N)cc2)=NC2CCN(C(=O)NC3CCOCC3)CC12` (stereo not drawn) [BB0274337, 4-(4-Cyano-2,6-dimethylphenoxy)-2-[(4-cyanophenyl)amino]-N-(oxan-4-yl)-4aH,5H,6H,7H,8H,8aH-pyrido [4,3-d]pyrimidine-6-carboxamide], the IC50 was 205 µM.

Turning to `Cc1ccc(CN2CCc3nc(Nc4ccc(C#N)cc4)nc(Oc4c(C)cc(C#N)cc4C)c3CC2)o1` [BB0274073], the IC50 came out at 57.4 µM.

Consider `Cc1cc(C#N)cc(C)c1Oc1nc(Nc2ccc(C#N)cc2)nc2c1CN(C(=O)[C@H](Cc1ccc(O)cc1)NC(=O)OC(C)(C)C)CC2` [BB0274124, (S)-Tert-butyl (1-(4-(4-cyano-2,6-dimethylphenoxy)-2-((4-cyanophenyl)amino)-7,8-dihydropyrido[4,3-d]pyrimidine-6(5H)-yl)-3-(4-hydroxyphenyl)-1-oxopropane-2-yl)carbamate], for which the IC50 amounted to 342 µM.

As for `Cc1cc(C#N)cc(C)c1Oc1nc(Nc2ccc(C#N)cc2)nc2c1CCN(CCN1CCOCC1)CC2` [BB0274118, 4-((2-((4-Cyanophenyl)amino)-7-(2-morpholineethyl)-6,7,8,9-tetrahydro-5H-pyrimido[4,5-d]azepine-4-yl)oxy)-3,5-dimethylbenzonitrile], the IC50 was found to be 0.324 µM.

As for `Cc1cc(C#N)cc(C)c1Oc1nc(Nc2ccc(C#N)cc2)nc2c1CN(S(N)(=O)=O)CC2` [BB0274239, 4-(4-Cyano-2,6-dimethylphenoxy)-2-[(4-cyanophenyl)amino]-5H,6H,7H,8H-pyrido[4,3-d]pyrimidine-6-sulfonamide], the IC50 came to 359 µM.

Take `Cc1cc(C#N)cc(C)c1Oc1nc(Nc2ccc(C#N)cc2)nc2c1CCN(C(=O)C1CCCN1C(=O)OC(C)(C)C)CC2` (stereo not drawn) [BB0274063, Tert-butyl 2-(4-(4-cyano-2,6-dimethylphenoxy)-2-((cyanophenyl)amino)-6,7,8,9-tetrahydro-5H-pyrimido[4,5-d]azepine-7-carbonyl)pyrrolidine-1-carboxylate]: the IC50 is 230 µM.

Regarding `COC(=O)N1CCc2nc(Nc3ccc(C#N)cc3)nc(Oc3c(C)cc(C#N)cc3C)c2CC1` [BB0274134, Methyl 4-(4-cyano-2,6-dimethylphenoxy)-2-((4-4-cyanophenyl)amino)-8,9-dihydro-5H-pyrimido[4,5-d]azepine-7(6H)-carboxylate], the IC50 was 0.0959 µM.

On to `Cc1cc(C#N)cc(C)c1Oc1nc(Nc2ccc(C#N)cc2)nc2c1CN(Cc1ccncc1)CC2` [BB0274137, 4-((2-((4-Cyanophenyl)amino)-6-(pyridine-4-ylmethyl)-5,6,7,8-tetrahydropyrido[4,3-d]pyrimidine-4-yl)oxy)-3,5-dimethylbenzonitrile], for which the IC50 is 0.00799 µM.

As to `Cc1cc(C#N)cc(C)c1Oc1nc(Nc2ccc(C#N)cc2)nc2c1CCN(Cc1cccnc1)CC2` [BB0274015, 4-((2-((4-Cyanophenyl)amino)-7-(pyridine-3-ylmethyl)-6,7,8,9-tetrahydro-5H-pyrimido[4,5-d]azepine-4-yl)oxy)-3,5-dimethylbenzonitrile], the IC50 came out at 29.9 µM.

Consider `Cc1cc(C#N)cc(C)c1Oc1nc(Nc2ccc(C#N)cc2)nc2c1CCN(C(=O)c1cccnc1)CC2` [BB0274012, 4-((2-((4-Cyanophenyl)amino)-7-nicotinoyl-6,7,8,9-tetrahydro-5H-pyrimido[4,5-d]azepine-4-yl)oxy)-3,5-dimethylbenzonitrile], for which the IC50 is 5.81 µM.

Take `Cc1cc(C#N)cc(C)c1Oc1nc(Nc2ccc(C#N)cc2)nc2c1CN(C(=O)C(Cc1cnn(C(=O)OC(C)(C)C)c1)NC(=O)OC(C)(C)C)CC2` (stereo not drawn) [BB0274122, Tert-butyl 4-(2-((tert-butoxycarbonyl)amino)-3-(4-(4-cyano-2,6-dimethylphenoxy)-2-((4-cyanophenyl)amino)-7,8-dihydropyrido[4,3-d]pyrimidine-6(5H)-yl)-3-oxopropyl)-1H-pyrazole-1-carboxylate]: the IC50 was determined as 18.9 µM.

As to `Cc1cc(C#N)cc(C)c1Oc1nc(Nc2ccc(C#N)cc2)nc2c1CCN(C(=O)CCl)CC2` [BB0274133, 4-((7-(2-Chloroacetyl)-2-((4-cyanophenyl)amino)-6,7,8,9-tetrahydro-5H-pyrimido[4,5-d]azepine-4-yl)oxy)-3,5-dimethylbenzonitrile], the IC50 stood at 10.5 µM.

With `Cc1cc(C=O)cc(C)c1Oc1nc(Nc2ccc(C#N)cc2)nc2c1CCN(C)C2` [BB0273775, 4-((4-(4-Formyl-2,6-dimethylphenoxy)-7-methyl-5,6,7,8-tetrahydro[3,4-d]pyrimidine-2-yl)amino)benzonitrile], the IC50 came out at 295 µM.

Consider `Cc1cc(C=O)cc(C)c1Oc1nc(Nc2ccc(C#N)cc2)nc2c1CCN(C(=O)OC(C)(C)C)CC2` [BB0273943, Tert-butyl 2-((4-cyanophenyl)amino)-4-(4-formyl-2,6-dimethylphenyoxy)-8,9-dihydro-5H-pyrimido[4,5-d]azepine-7(6H)-carboxylate], for which the IC50 came to 346 µM.

Consider `CSCC[C@H](N)C(=O)N1CCc2nc(Nc3ccc(C#N)cc3)nc(Oc3c(C)cc(C#N)cc3C)c2C1` [BB0274132, 4-((2-((4-cyanophenyl)amino)-6-methionyl-5,6,7,8-tetrahydropyrido[4,3-d]pyrimidin-4-yl)oxy)-3,5-dimethylbenzonitrile], for which the IC50 came out at 0.909 µM.
